Measured values: patent US20040052754A1, “Complexes of phosphate derivatives” (priority 2000, published 2004)
Blank lines part the entries; values can stand above or below the compound they belong to.

Assays:
[1] = Vapour pressure osmometry (dissociation in water); type: physicochemical; conditions: arbitrary scale
Text: A vapour pressure osmometer was used to investigate the dissociation of the di-sodium alpha tocopheryl phosphate N-lauryl imino dipropionate complex by comparing the lowering of the equilibrium temperature to give an identical partial pressure of water vapour around a drop of pure water versus various solutions as an indication of the relative moles of solute.
N-lauryl imino dipropionate alone gives three ions and at 0.05M the effect was 38 units. If the complex was readily dissociated, then the additional tocopheryl phosphate would be expected to increase the effect in the ratio 3:5 by the addition of the charged amino group as a cation and tocopheryl hydrogen phosphate anion.

[2] = tested on: Human cadaver skin; experiment: In vitro human skin penetration study; type: in vitro ADME; conditions: analyte tocopheryl acetate
Experimental: DSS was similar in TP and […] content, however, unlike TPC, DSS existed as the mixed sodium salts. A slurry of 6.25 w/w % of 80% DSS in 93.75 w/w % of the 95/5-water/ethanol mixture iwa prepared. Tocopheryl acetate was obtained from Roche/BASF. 5.0 w/w % of TA was dispersed in 95.0 w/w % of 95/5 water/ethanol mixture. The test formulations were evaluated in in vitro human skin penetration studies. […] The tests were conducted by […] International (San Diego, Calif.). Human cadaver skin was obtained and prepared. […] Receptor solutions were collected over 48 hours at pre-selected time intervals. After 48 hours the skin surface was washed with isopropyl alcohol, and the skin was collected and split into epidermis and dermis. The skin sections were extracted with isopropyl alcohol.

Osmometer effect ([1]; 0.05M in water): 38 units
SMILES: CCCCCCCCCCCCN(CCC(=O)O)CCC(=O)O [N-lauryl imino dipropionate]

Dermis/Epidermis Ratio, Tocopheryl Acetate ([2]; 48 hours): 0.20
Percent distribution recovered: Tocopheryl Acetate, Dermis ([2]; dermis after 48 hours, 5 μL/cm^2 topical dose): 1.39 wt/wt %
Percent distribution recovered: Tocopheryl Acetate, Epidermis ([2]; epidermis after 48 hours, 5 μL/cm^2 topical dose): 7.13 wt/wt %
Percent distribution recovered: Tocopheryl Acetate, Surface Wash ([2]; surface wash after 48 hours, 5 μL/cm^2 topical dose): 91.48 wt/wt %
SMILES: CC(=O)Oc1c(C)c(C)c2c(c1C)CCC(C)(CCC[C@H](C)CCC[C@H](C)CCCC(C)C)O2 (stereo partly drawn) [TA, Tocopheryl acetate]

SMILES: [Cl-].[Na+] [sodium chloride]
Osmometer effect ([1]; 0.1M in water): 29 unit
